Measured values from paper PMC12441857, “Cannabinoid CB1 Receptor Activation Mitigates N‑Methyl‑D‑aspartate Receptor-Mediated Neurotoxicity” (ACS Pharmacology & Translational Science, 2025).

Molecular target: T1, cannabinoid CB1 receptor (CB1R) (Homo sapiens, UniProt P21554)
T1 construct: gene CNR1; SNAP-tagged CB1R in HEK-293T cells
Test: HTRF (Tag-lite) competition binding against fluorescent CELT-335
Format: cell-based

T1 sequence (P21554 whole entry): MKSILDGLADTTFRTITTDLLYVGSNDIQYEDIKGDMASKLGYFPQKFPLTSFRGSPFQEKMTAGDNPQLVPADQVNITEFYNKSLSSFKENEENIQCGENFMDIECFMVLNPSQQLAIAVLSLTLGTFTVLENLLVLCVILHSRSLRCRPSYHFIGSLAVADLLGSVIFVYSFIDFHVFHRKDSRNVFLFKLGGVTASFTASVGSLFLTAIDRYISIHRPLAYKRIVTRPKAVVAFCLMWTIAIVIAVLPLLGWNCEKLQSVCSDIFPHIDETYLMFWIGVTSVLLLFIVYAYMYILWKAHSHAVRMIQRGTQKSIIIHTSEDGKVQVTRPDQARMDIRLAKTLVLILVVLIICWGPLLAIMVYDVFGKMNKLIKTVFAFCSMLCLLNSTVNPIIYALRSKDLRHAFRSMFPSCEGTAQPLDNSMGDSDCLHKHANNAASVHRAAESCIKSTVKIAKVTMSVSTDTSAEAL

## CCCCC/C=C\C/C=C\C/C=C\C/C=C\CCCC(=O)NCCCl [ACEA]
  Ki: 4.8 nM
